Like-named read-outs stand apart in the source and are kept apart here.
Legend:
hNav1.2 = hNav1.2 (Homo sapiens (Human), UniProt Q99250); assay: Automated patch clamp (IonWorks Quattro) block of hNav1.2 channels in CHO cells; assay type: cell-based
From the text: (§1) FIG. 1 depicts the voltage sequence used to measure inhibitory activity of compounds as described in Example 3. An automated patch clamp screening assay was used to measure the inhibitory effect (potency) of compounds in three conformational states of the sodium channel: (1) the tonic state (TP1); (2) the frequency-dependent (10 Hz) state (TP11) and (3) the inactivated state (TP12).
(§2) Test Protocol for Determining the Potency of Compounds on Nav1.2 and Nav1.6 Subtypes of Voltage-Gated Sodium Ion Channels Expressed in Mammalian Cells
(§3) Cell culture procedures: Chinese hamster ovary (CHO) cells were stably transfected with the cDNA sequence of either the human SCN2A or SCN8A genes to create hNav1.2 or hNav1.6 cells respectively. The cell lines were cultured in Ham's F-12 medium supplemented with 10% fetal bovine serum and antibiotics in a tissue incubator at 37° C. under a humidified air/CO2 mixture (95/5 v/v). On the day of the experiment, cells were washed twice with Hank's balanced salt solution, treated with trypsin, and resuspended in fresh culture media at a density of 4−6×10^6 cells in 20 ml. Immediately before placing in the IonWorks Quattro instrument, cells were washed in Hank's balanced salt solution to remove culture medium and re-suspended in 3 ml of Hank's balanced salt solution.
(§4) Automated patch clamp recordings of cells using the IonWorks Quattro Instrument: The assay used a 384 microwell plate, which enabled 20 compounds to be studied at four different concentrations in quadruplicate as well as allowing a vehicle control group and a positive control group using mexiletine at 8 different concentrations. Cells were added to the wells of the Population Patch Clamp planar electrode using a 48-channel pipettor in a volume of 6 μL, per well. After 5 minutes incubation at ambient temperature with compounds or vehicle, membrane currents were recorded using the patch clamp amplifier. The pulse pattern was repeated twice, before and after compound addition and peak current amplitudes were measured at three test pulses, TP1, TP11 and TP12 to measure Tonic Block, 10 Hz Frequency-dependent Block and Inactivation State Block, respectively.
(§5) Data analysis: Data acquisition and analyses were carried out using the IonWorks Quattro system operation software which uses an algorithm to correct data for leak currents. Concentration-response curves were fitted by non-linear least squares regression allowing calculation of an IC50 value (μM), being the concentration of the compound producing half-maximal inhibition.

hNav1.6 = hNav1.6 (Homo sapiens (Human), UniProt Q9UQD0); assay: Automated patch clamp (IonWorks Quattro) block of hNav1.6 channels in CHO cells; assay type: cell-based
Chain of hNav1.6 (Q9UQD0 whole entry): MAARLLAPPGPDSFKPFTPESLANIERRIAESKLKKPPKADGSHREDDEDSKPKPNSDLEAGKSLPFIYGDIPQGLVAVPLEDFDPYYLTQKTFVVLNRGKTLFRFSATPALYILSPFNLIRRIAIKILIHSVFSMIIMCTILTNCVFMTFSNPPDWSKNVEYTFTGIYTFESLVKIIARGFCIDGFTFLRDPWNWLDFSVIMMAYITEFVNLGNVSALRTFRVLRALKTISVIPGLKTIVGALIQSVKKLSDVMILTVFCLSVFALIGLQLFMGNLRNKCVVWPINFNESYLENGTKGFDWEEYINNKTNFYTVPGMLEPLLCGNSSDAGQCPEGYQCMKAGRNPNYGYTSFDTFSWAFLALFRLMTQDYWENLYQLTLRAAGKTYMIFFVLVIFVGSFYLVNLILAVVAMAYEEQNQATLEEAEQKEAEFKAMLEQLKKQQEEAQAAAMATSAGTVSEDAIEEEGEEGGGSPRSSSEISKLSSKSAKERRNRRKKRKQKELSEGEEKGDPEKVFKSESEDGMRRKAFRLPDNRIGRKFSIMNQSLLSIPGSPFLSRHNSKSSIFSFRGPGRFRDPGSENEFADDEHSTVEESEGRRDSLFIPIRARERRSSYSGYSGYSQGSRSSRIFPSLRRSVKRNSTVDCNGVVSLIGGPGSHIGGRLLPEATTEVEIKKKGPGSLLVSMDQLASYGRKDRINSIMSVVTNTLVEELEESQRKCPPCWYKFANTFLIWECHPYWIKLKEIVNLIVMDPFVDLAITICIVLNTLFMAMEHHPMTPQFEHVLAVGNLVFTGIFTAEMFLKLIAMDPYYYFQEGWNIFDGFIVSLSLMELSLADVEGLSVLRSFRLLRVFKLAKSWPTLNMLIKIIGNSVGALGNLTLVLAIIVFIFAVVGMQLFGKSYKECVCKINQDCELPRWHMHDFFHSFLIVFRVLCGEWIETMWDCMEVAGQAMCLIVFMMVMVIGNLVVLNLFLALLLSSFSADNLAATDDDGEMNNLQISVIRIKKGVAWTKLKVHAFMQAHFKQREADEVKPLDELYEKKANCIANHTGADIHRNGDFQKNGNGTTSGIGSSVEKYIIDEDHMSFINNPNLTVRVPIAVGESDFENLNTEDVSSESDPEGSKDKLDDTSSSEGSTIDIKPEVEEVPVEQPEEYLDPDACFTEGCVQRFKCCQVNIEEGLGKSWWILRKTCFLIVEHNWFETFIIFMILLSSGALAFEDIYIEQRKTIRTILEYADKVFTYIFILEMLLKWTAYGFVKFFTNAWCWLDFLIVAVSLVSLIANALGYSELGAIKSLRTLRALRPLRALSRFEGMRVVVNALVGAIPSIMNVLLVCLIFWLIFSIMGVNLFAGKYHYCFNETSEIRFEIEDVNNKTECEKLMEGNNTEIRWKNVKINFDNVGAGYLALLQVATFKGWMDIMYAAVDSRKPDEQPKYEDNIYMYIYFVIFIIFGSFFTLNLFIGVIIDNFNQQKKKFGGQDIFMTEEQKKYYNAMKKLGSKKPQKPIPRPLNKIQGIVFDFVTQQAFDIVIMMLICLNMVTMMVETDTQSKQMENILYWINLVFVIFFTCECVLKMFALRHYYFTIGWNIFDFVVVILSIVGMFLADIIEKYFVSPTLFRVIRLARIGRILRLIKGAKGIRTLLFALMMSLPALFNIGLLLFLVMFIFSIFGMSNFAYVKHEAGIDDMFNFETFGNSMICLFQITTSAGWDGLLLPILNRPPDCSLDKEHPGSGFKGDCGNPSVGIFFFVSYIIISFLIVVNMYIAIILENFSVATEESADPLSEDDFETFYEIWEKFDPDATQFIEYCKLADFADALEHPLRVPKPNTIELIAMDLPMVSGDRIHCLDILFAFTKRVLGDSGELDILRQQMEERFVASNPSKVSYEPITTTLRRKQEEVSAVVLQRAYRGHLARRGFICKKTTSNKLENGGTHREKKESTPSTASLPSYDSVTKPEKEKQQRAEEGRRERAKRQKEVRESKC
From the text: as §1, §2, §3, §4, §5

[1] = 10 Hz frequency-dependent block (TP11), read-out: IC50 Nav1.2 10 Hz block
[2] = Inactivated state block (TP12), read-out: IC50 Nav1.2 Inactivated state block
[3] = Tonic block (TP1), read-out: IC50 Nav1.2 Tonic block
[4] = 10 Hz frequency-dependent block (TP11), read-out: IC50 Nav1.6 10 Hz block
[5] = Inactivated state block (TP12), read-out: IC50 Nav1.6 Inactivated state block
[6] = Tonic block (TP1), read-out: IC50 Nav1.6 Tonic block

Chain of hNav1.2 (Q99250 whole entry): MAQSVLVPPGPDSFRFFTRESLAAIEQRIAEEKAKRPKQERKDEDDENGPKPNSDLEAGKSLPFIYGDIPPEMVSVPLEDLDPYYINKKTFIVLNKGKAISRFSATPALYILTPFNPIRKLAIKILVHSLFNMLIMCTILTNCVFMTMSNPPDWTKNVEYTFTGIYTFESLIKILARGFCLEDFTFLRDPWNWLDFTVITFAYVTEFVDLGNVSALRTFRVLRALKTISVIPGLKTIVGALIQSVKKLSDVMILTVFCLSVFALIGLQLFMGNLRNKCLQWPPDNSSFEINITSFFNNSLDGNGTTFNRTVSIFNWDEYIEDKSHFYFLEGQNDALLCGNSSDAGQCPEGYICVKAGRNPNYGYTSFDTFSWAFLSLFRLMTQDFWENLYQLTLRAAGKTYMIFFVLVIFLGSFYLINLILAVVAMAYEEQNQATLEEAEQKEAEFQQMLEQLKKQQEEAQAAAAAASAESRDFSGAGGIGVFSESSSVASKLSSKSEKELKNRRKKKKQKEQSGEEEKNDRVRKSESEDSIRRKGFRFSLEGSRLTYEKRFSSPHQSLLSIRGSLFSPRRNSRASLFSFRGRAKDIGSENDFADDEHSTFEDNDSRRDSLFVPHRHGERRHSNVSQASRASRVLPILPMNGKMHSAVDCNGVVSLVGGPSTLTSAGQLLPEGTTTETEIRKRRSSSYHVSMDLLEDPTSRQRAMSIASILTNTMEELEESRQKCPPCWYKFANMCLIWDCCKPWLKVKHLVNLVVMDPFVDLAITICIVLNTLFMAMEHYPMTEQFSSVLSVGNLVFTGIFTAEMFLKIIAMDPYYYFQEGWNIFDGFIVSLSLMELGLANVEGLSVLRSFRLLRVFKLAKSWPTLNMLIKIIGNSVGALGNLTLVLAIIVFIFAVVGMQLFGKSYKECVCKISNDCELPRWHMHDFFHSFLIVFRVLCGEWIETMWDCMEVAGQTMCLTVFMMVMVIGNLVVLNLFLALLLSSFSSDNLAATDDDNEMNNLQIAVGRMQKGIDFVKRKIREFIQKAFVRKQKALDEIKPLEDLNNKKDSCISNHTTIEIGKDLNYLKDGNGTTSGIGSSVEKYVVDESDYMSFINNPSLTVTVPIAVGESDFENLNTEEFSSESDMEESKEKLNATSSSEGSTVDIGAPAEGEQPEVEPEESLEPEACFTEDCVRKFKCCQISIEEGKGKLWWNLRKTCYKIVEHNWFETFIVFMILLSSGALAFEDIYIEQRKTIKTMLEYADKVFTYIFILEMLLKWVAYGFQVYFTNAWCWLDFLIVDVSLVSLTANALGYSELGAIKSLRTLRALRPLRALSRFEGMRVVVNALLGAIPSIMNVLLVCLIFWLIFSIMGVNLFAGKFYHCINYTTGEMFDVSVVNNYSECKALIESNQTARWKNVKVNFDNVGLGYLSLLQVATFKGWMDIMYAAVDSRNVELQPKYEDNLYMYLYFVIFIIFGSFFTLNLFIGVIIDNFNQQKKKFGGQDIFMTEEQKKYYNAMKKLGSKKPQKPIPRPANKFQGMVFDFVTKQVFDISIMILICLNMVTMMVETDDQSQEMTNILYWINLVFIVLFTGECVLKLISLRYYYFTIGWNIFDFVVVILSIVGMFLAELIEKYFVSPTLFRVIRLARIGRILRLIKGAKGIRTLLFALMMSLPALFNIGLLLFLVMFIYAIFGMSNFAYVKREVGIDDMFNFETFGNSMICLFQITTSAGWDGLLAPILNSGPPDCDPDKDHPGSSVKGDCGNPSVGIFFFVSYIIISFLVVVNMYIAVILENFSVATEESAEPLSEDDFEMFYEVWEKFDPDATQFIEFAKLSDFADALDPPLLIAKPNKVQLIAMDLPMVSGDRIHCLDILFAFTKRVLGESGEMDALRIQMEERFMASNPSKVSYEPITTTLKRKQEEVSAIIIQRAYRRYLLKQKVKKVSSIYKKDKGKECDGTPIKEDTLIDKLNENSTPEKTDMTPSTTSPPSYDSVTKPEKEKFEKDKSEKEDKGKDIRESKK

Cc1cccc(C)c1OCCCNC(C)c1ccccc1 (stereo not drawn) [Compound 553, 3-(2,6-Dimethylphenoxy)-N-(1-phenylethyl)propan-1-amine]
IC50 (hNav1.2; [1]): 1.2 µM | IC50 (hNav1.2; [2]): 0.2 µM | IC50 (hNav1.2; [3]): 3.6 µM | IC50 (hNav1.6; [4]): 1 µM | IC50 (hNav1.6; [5]): 0.3 µM | IC50 (hNav1.6; [6]): 1.6 µM

Cc1cccc(C)c1OCCCNC(c1ccccc1)c1ccccc1 [Compound 554, N-Benzhydryl-3-(2,6-dimethylphenoxy)propan-1-amine]
IC50 (hNav1.2; [1]): 32.2 µM | IC50 (hNav1.2; [2]): 1.4 µM | IC50 (hNav1.2; [3]): > 1000 µM | IC50 (hNav1.6; [4]): > 1000 µM | IC50 (hNav1.6; [5]): > 1000 µM | IC50 (hNav1.6; [6]): > 1000 µM

Cc1cccc(C)c1OCCCNCc1c2ccccc2nn1Cc1ccccc1 [Compound 555, N-((2-Benzyl-2H-indazol-3-yl)methyl)-3-(2,6-dimethylphenoxy)propan-1-amine]
IC50 (hNav1.2; [1]): > 10 µM | IC50 (hNav1.2; [2]): 9.3 µM | IC50 (hNav1.2; [3]): > 10 µM | IC50 (hNav1.6; [4]): > 10 µM | IC50 (hNav1.6; [5]): 3.7 µM | IC50 (hNav1.6; [6]): > 10 µM

Cc1cccc(C)c1OCCCNCc1cccc(-c2ccccc2F)c1 [Compound 556, 3-(2,6-Dimethylphenoxy)-N-((2′-fluorobiphenyl-3-yl)methyl)propan-1-amine]
IC50 (hNav1.2; [1]): 4.5 µM | IC50 (hNav1.2; [2]): 2.1 µM | IC50 (hNav1.2; [3]): > 30 µM | IC50 (hNav1.6; [4]): > 30 µM | IC50 (hNav1.6; [5]): 8 µM | IC50 (hNav1.6; [6]): > 30 µM

Cc1cccc(C)c1OCCCNCc1cccc(-c2ccc(F)cc2)c1 [Compound 557, 3-(2,6-Dimethylphenoxy)-N-((4′-fluorobiphenyl-3-yl)methyl)propan-1-amine]
IC50 (hNav1.2; [1]): 9.3 µM | IC50 (hNav1.2; [2]): 3.2 µM | IC50 (hNav1.2; [3]): > 30 µM | IC50 (hNav1.6; [4]): > 30 µM | IC50 (hNav1.6; [5]): > 30 µM | IC50 (hNav1.6; [6]): > 30 µM

Cc1cccc(C)c1OCCCNCc1cccc(-c2cncnc2)c1 [Compound 558, 3-(2,6-Dimethylphenoxy)-N-(3-(pyrimidin-5-yl)benzyl)propan-1-amine]
IC50 (hNav1.2; [1]): 0.6 µM | IC50 (hNav1.2; [2]): 0.2 µM | IC50 (hNav1.2; [3]): 1.2 µM | IC50 (hNav1.6; [4]): 0.4 µM | IC50 (hNav1.6; [5]): 0.3 µM | IC50 (hNav1.6; [6]): 0.4 µM

Cc1cccc(C)c1OCCCNCc1cc(C(C)(C)C)cc(C(C)(C)C)c1 [Compound 559, N-(3,5-Di-tert-butylbenzyl)-3-(2,6-dimethylphenoxy)propan-1-amine]
IC50 (hNav1.2; [1]): > 10 µM | IC50 (hNav1.2; [2]): > 10 µM | IC50 (hNav1.2; [3]): > 10 µM | IC50 (hNav1.6; [4]): > 10 µM | IC50 (hNav1.6; [5]): > 10 µM | IC50 (hNav1.6; [6]): > 10 µM

Cc1cccc(C)c1OCCCNC(c1ccccn1)c1ccccn1 [Compound 562, 3-(2,6-Dimethylphenoxy)-N-(dipyridin-2-ylmethyl)propan-1-amine]
IC50 (hNav1.2; [1]): 1.2 µM | IC50 (hNav1.2; [2]): 0.1 µM | IC50 (hNav1.2; [3]): > 30 µM | IC50 (hNav1.6; [4]): 1.3 µM | IC50 (hNav1.6; [5]): 0.1 µM | IC50 (hNav1.6; [6]): > 30 µM

Cc1n[nH]c(C)c1OCCCNC(c1ccccn1)c1ccccn1 [Compound 642, 3-(3,5-Dimethyl-1H-pyrazol-4-yloxy)-N-(dipyridin-2-ylmethyl)propan-1-amine]
IC50 (hNav1.2; [1]): > 10 µM | IC50 (hNav1.2; [2]): > 10 µM | IC50 (hNav1.2; [3]): > 10 µM | IC50 (hNav1.6; [4]): > 10 µM | IC50 (hNav1.6; [5]): > 10 µM | IC50 (hNav1.6; [6]): > 10 µM

Cc1n[nH]c(C)c1OCCCNCc1cccc(-c2cncnc2)c1 [Compound 643, 3-(3,5-Dimethyl-1H-pyrazol-4-yloxy)-N-(3-(pyrimidin-5-yl)benzyl)propan-1-amine]
IC50 (hNav1.2; [1]): > 10 µM | IC50 (hNav1.2; [2]): > 10 µM | IC50 (hNav1.2; [3]): > 10 µM | IC50 (hNav1.6; [4]): > 10 µM | IC50 (hNav1.6; [5]): > 10 µM | IC50 (hNav1.6; [6]): > 10 µM

Cc1nn(C)c(C)c1OCCCNC(c1ccccn1)c1ccccn1 [Compound 644, N-(Dipyridin-2-ylmethyl)-3-(1,3,5-trimethyl-1H-pyrazol-4-yloxy)propan-1-amine]
IC50 (hNav1.2; [1]): > 10 µM | IC50 (hNav1.2; [2]): > 10 µM | IC50 (hNav1.2; [3]): > 10 µM | IC50 (hNav1.6; [4]): > 10 µM | IC50 (hNav1.6; [5]): > 10 µM | IC50 (hNav1.6; [6]): > 10 µM

Cc1nn(C)c(C)c1OCCCNCc1cccc(-c2cncnc2)c1 [Compound 645, N-(3-(Pyrimidin-5-yl)benzyl)-3-(1,3,5-trimethyl-1H-pyrazol-4-yloxy)propan-1-amine]
IC50 (hNav1.2; [1]): > 10 µM | IC50 (hNav1.2; [2]): > 10 µM | IC50 (hNav1.2; [3]): > 10 µM | IC50 (hNav1.6; [4]): > 10 µM | IC50 (hNav1.6; [5]): > 10 µM | IC50 (hNav1.6; [6]): > 10 µM

Reference: patent publication US10577308B2, “Sodium channel modulators” (The Florey Institute of Neuroscience and Mental Health, priority 2015, dated 2020)
